The values that follow come from the Deep4Chem optical property database.

The data set in a line: photoluminescence quantum yield (fraction); solvent given as SMILES.

Regarding `CCC1(CC)c2cc(Br)ccc2-c2c1c1c(c3c2C(CC)(CC)c2cc(-c4cccs4)ccc2-3)C(CC)(CC)c2cc(Br)ccc2-1`, the photoluminescence quantum yield (in C1CCOC1) was determined as 0.32.

In turn, `CN(C)c1ccc(C2=Nc3scc(-c4ccc(C#N)cc4)[n+]3[B-](F)(F)O2)cc1` returned a photoluminescence quantum yield (in C1CCOC1) of 0.23, a photoluminescence quantum yield (in CC#N) of 0.02, a photoluminescence quantum yield (in Cc1ccccc1) of 0.62 and a photoluminescence quantum yield (in ClCCl) of 0.61.

Regarding `c1csc(-c2nc3ccccc3c3cc4ccccn4c23)c1`, the photoluminescence quantum yield (in CS(C)=O) came out at 0.2.

Compound `N#Cc1nc(N(Cc2ccccc2F)Cc2ccccc2F)c(C#N)nc1N(Cc1ccccc1F)Cc1ccccc1F` came in with a photoluminescence quantum yield (in ClC(Cl)Cl) of 0.79.

`CC1=[N+]2C(=C(c3ccccc3)c3ccc(/C=C/c4ccc(C(=C(c5ccccc5)c5ccccc5)c5ccccc5)cc4)n3[B-]2(F)F)C=C1`: the photoluminescence quantum yield (in C1CCOC1) is 0.746.

Turning to `Cc1ccccc1-c1c2ccc(=[N+]3CCCC3)cc-2oc2cc(N3CCCC3)ccc12`, the photoluminescence quantum yield came to 0.95 (in CCO) and 1 (in ClCCl).

Compound `CCCCCCCCn1c2ccc(/C=C/c3ccc(N(c4ccccc4)c4ccccc4)cc3)cc2c2cc3c(cc21)c1cc(/C=C/c2ccc(N(c4ccccc4)c4ccccc4)cc2)ccc1n3CCCCCCCC` displayed a photoluminescence quantum yield (in Cc1ccccc1) of 0.6.

`CC(C)(C)c1ccc(C2=C(c3ccc(C(C)(C)C)cc3)[Si](c3ccccc3)(c3ccccc3)c3ccccc32)cc1` gave a photoluminescence quantum yield (in C1CCOC1) of 0.015.

Under “in ClCCl”, `CCCCCCCCCCCCN1C(=O)c2c(c3ccc4cc(-c5ccc(OC)cc5)c(OC)cc4c3c3c2ccc2cc(-c4ccc(OC)cc4)c(OC)cc23)C1=O` gave a photoluminescence quantum yield of 0.196.

For `COc1cccc(-c2[nH]c(=O)n3c2-c2ccccc2C3=O)c1O`, the photoluminescence quantum yield came to 0.51 (in CC#N), 0.02 (in CO) and 0.75 (in ClCCl).

Compound `COc1ccc2c3c(c4ccc(OC)cc4c2c1)C(C)(C)c1ccccc1-3` showed a photoluminescence quantum yield (in C1CCCCC1) of 0.19.

As to `COc1ccc(-c2c3ccccc3c(C#Cc3ccccc3)c3cc4cc(C)sc4cc23)cc1`, where the note is “in ClCCl”, the photoluminescence quantum yield is 0.73.

For `CCCN1/C(=C/C=C(/C=C/C2=[N+](CCC)c3ccccc3C2(C)C)c2ccc3ccccc3n2)C(C)(C)c2ccccc21`, the photoluminescence quantum yield runs as follows: (in CO) 0.18; (in CS(C)=O) 0.37; (in O) 0.01.

The compound `CC(=O)OCCOCCN1C(=O)c2cc(NCCOCCO)c3c4c(cc(NCCOCCO)c(c24)C1=O)C(=O)N(CCOCCOC(C)=O)C3=O` returned a photoluminescence quantum yield (in CO) of 0.37, a photoluminescence quantum yield (in ClC(Cl)Cl) of 0.59 and a photoluminescence quantum yield (in O) of 0.03.

For `CCOC(=O)c1cc(C(=O)OCC)c2c(C)ccc(OC(=O)OC(C)(C)C)c2n1`, the photoluminescence quantum yield (in CCO) came to 0.22.

For the compound `CCN1c2ccc(/C=N/Nc3ccccn3)cc2Sc2cc(-c3cccc4ccccc34)ccc21`, the photoluminescence quantum yield was found to be 0.2 (in C1CCOC1), 0.35 (in CS(C)=O), 0.1 (in Cc1ccccc1) and 0.3 (in ClCCl).

Turning to `Cc1cc(C)c(B(c2ccc(N3c4ccccc4C(C)(C)c4ccccc43)cc2)c2c(C)cc(C)cc2C)c(C)c1`, under “in Cc1ccccc1”, the photoluminescence quantum yield is 0.89.

Regarding `COc1ccc(-c2nc(-c3ccccc3OC)[nH]c2-c2ccc(OC)cc2)cc1`, the photoluminescence quantum yield (in CO) worked out at 0.27.

Regarding `C[Si]1(c2ccccc2)C(c2ccc(-n3c4ccccc4c4ccccc43)cc2)=C(c2ccccc2)C(c2ccccc2)=C1c1ccc(-n2c3ccccc3c3ccccc32)cc1`, the photoluminescence quantum yield (in C1CCOC1) turned out to be 0.032.

Consider `Cc1cc(N(C)C)cc(C)c1/C=C/C=C/c1ccc(C#N)cc1`, for which the photoluminescence quantum yield was found to be 0.087 (in C1CCOC1); 0.212 (in CC#N); 0.043 (in CCCCCC); 0.061 (in CCCCOCCCC); 0.168 (in CCO); 0.082 (in CCOCC).

Regarding `COc1ccc(C2=C(c3ccccc3)C(c3ccccc3)=[N+]3C2=Nc2c(-c4ccc(OC)cc4)c(-c4ccccc4)c(-c4ccccc4)n2[B-]3(F)F)cc1`, for the setting “in Cc1ccccc1”, the photoluminescence quantum yield came out at 0.04.

In turn, `C[Si]1(c2ccccc2)C(c2ccc3c4ccccc4n(-c4ccccc4)c3c2)=C(c2ccccc2)C(c2ccccc2)=C1c1ccc2c3ccccc3n(-c3ccccc3)c2c1` registered a photoluminescence quantum yield (in C1CCOC1) of 0.0575.

`CCOC(=O)c1sc(SC)c2c(=O)n(C)nnc12`: the photoluminescence quantum yield is 0.016 (in C1CCOC1); 0.029 (in CC#N); 0.054 (in CCO); 0.013 (in CN(C)C=O); 0.052 (in CO); 0.0077 (in CS(C)=O).

On to `Cc1ccc2c(c1)c1cc(C)ccc1n2-c1cccc(-n2c3ccc(C)cc3c3cc(C)ccc32)c1C#N`, for which the photoluminescence quantum yield by setting is: (in Cc1ccccc1) 0.34; (in O=P(c1ccccc1)(c1ccccc1)c1ccccc1Oc1ccccc1P(=O)(c1ccccc1)c1ccccc1) 0.66.

Turning to `C/C=C/c1ccc(OC)c(OC)c1`, the photoluminescence quantum yield by setting is: (in CC#N) 0.28; (in CCCCCC) 0.35.

Consider `CCN(CC)c1ccc(-c2ccc(-c3nc4ccccc4c(=O)[nH]3)s2)cc1`, for which the photoluminescence quantum yield runs as follows: (in CC#N) 0.28; (in Cc1ccccc1) 0.71.

`N#Cc1ccc(-c2cn3cc(-c4ccccc4)c[n+]3[n-]2)cc1` gave a photoluminescence quantum yield (in ClCCl) of 0.48.

`CC/[NH+]=c1\cc2oc3cc(NCCOC(=O)C(NC(=O)OC(C)(C)C)C(C)C)c4ccccc4c3nc-2cc1C` (stereo not given): the photoluminescence quantum yield is, setting by setting: (in CCO) 0.32; (in O) 0.26.

The compound `Cn1c(=O)c2c(ncn2C)n(C)c1=O` returned a photoluminescence quantum yield (in O) of 0.

With `CCN(CC)c1ccc2cc(/C=C/C(=O)c3cc4ccc(N(CC)CC)cc4oc3=O)c(=O)oc2c1`, the photoluminescence quantum yield runs as follows: (in C1CCOC1) 0.53; (in C1COCCO1) 0.58; (in CC#N) 0.11; (in CC(C)=O) 0.27; (in CCO) 0.07; (in CCOC(C)=O) 0.57. This compound yielded a photoluminescence quantum yield (in CN(C)C=O) of 0.01; a photoluminescence quantum yield (in CS(C)=O) of 0.06; a photoluminescence quantum yield (in Cc1ccccc1) of 0.68; a photoluminescence quantum yield (in ClC(Cl)Cl) of 0.5; a photoluminescence quantum yield (in ClCCl) of 0.59; a photoluminescence quantum yield (in O) of 0.

For the compound `COc1ccc(/C=C/C2=[O+][B-](F)(F)OC(/C=C/c3ccc(OC)cc3)=C2c2ccc(OC)cc2)cc1`, where the note is “in ClCCl”, the photoluminescence quantum yield was 0.39.

On to `FC(F)(F)C(F)(F)C(F)(F)C(F)(F)C(F)(F)C(F)(F)C(F)(F)C(F)(F)CCOc1nnc(Cl)nn1`, for which the photoluminescence quantum yield reads like this: (in ClCCl) 0.44; (in OCC(F)(F)F) 0.28.

Take `CCN(CC)c1ccc2cc(C#N)/c(=N\C(=O)c3ccco3)oc2c1`: the photoluminescence quantum yield reads like this: (in CCO) 0.033; (in ClCCl) 0.9.

Under “in ClCCl”, `C(S/C=C/c1ccc(-c2ccc(/C=C/SC=C3CCCCCC3)cc2)cc1)=C1CCCCCC1` showed a photoluminescence quantum yield of 0.176.

Compound `CCCC1(CCC)c2ccccc2-c2ccc(-c3ccc4c(c3)C(CCC)(CCC)c3cc(-c5ccc6c(c5)C(CCC)(CCC)c5ccccc5-6)ccc3-4)cc21` yielded a photoluminescence quantum yield (in C1CCCCC1) of 0.91.

For the setting “in ClCCl”, `COc1ccc(/C=C/c2nc(N3CCOCC3)c3c([n+]2[O-])CCCC3)cc1` gave a photoluminescence quantum yield of 0.12.

Regarding `CC1=N/C(=C\c2cc(C#N)cc(N(C)C)c2)C(=O)N1C`, the photoluminescence quantum yield is, setting by setting: (in C1CCOC1) 0.14; (in CC#N) 0.05; (in CCCCCC) 0.45.

`N#C/C(=C\c1ccc(C=C(c2ccccc2)c2ccccc2)cc1)c1ccccc1` gave a photoluminescence quantum yield (in C1CCOC1) of 0.045.

Consider `CN(C)CCCN1c2ccccc2Sc2ccc(C(F)(F)F)cc21`, for which the photoluminescence quantum yield is, setting by setting: (in CC#N) 0.0011; (in CO) 0.001; (in O) 0.0014.

Consider `C(S/C=C/c1ccc(/C=C/SC=C2CCCC2)cc1)=C1CCCC1`, for which, where the note is “in ClCCl”, the photoluminescence quantum yield stood at 0.021.

For the setting “in CCO”, `Cc1c(COC(=O)Cc2cccc3ccccc23)n2c(OCC(=O)Cc3cccc4ccccc34)c(C)c(=O)n2c1=O` gave a photoluminescence quantum yield of 0.84.

Regarding `COc1ccc(-c2cc(-c3ccc(C)cc3)nc3c(C#N)c(N4CCCC4)nc(N)c23)cc1`, the photoluminescence quantum yield runs as follows: (in CC#N) 0.06; (in c1ccccc1) 0.084.

With `CC1=CC(C)=[N+]2C1=C(c1ccc(I)cc1)c1c(C)cc(C)n1[B-]2(Oc1ccccc1)Oc1ccccc1`, the photoluminescence quantum yield (in ClC(Cl)Cl) amounted to 0.06.

Compound `CC(C)[Si](C#Cc1ccc2c(C#C[Si](C(C)C)(C(C)C)C(C)C)cc3c4cc(C#C[Si](C(C)C)(C(C)C)C(C)C)ccc4c(C#C[Si](C(C)C)(C(C)C)C(C)C)cc3c2c1)(C(C)C)C(C)C` yielded a photoluminescence quantum yield (in ClCCl) of 0.741.

With `Cc1cc(C#Cc2ccccc2)c2ccc3c(C#Cc4ccccc4)cc(C#Cc4ccccc4)c4ccc1c2c43`, the photoluminescence quantum yield is, setting by setting: (in CS(C)=O) 0.72; (in ClC(Cl)(Cl)Cl) 0.56.

`COc1ccc(-c2cc3c(s2)c(C(C)=O)cc(=O)n3C)cc1`: the photoluminescence quantum yield is, setting by setting: (in CC#N) 0.84; (in ClCCl) 0.98.

For `c1ccc(-c2nc(-c3ccc(-c4ccc(-c5ccc(-c6nc(-c7ccccc7)c(-c7ccccc7)o6)cc5)cc4)cc3)oc2-c2ccccc2)cc1`, the photoluminescence quantum yield (in C1COCCO1) was 0.73.

`c1ccc(N(c2ccccc2)c2c3ccccc3cc3ccccc23)cc1` returned a photoluminescence quantum yield (in Cc1ccccc1) of 0.92.

Consider `Cc1cc(C)c(B(c2ccccc2-n2c3ccccc3c3ccccc32)c2c(C)cc(C)cc2C)c(C)c1`, for which the photoluminescence quantum yield (in Cc1ccccc1) is 0.79.

Take `N#CC1=CC(c2ccccc2)=CC(C#N)=P1(c1ccccc1)c1ccccc1`: under “in ClC(Cl)Cl”, the photoluminescence quantum yield was determined as 0.75.

The compound `c1ccc(-n2c3ccccc3c3c2c2ccccc2n3-c2ccccc2)cc1` showed a photoluminescence quantum yield (in Cc1ccccc1) of 0.404.

In turn, `N#Cc1ccc2nc3c(=O)[nH]c(=O)[nH]c3nc2c1` had a photoluminescence quantum yield (in ClCCCl) of 0.016.

`CCOC(=O)c1cc(C(=O)OCC)c2cc(OC)ccc2n1`: the photoluminescence quantum yield (in CCO) is 0.53.
